Experimental data: patent US20220169639A1 (priority 2018, published 2022)

What was measured:
[1] = test system: HBV (HBsAg) in HBV-infected PHH; experiment: Cryopreserved primary human hepatocytes (PHH) HBV infection assay, extracellular HBsAg (CLIA); type: cell-based; conditions: Hepatitis B virus, Hepatocyte, 216 h, read-out: HBsAg IC50
Experimental: This assay is used to confirm the anti-HBV effect of the compounds in HBV PHH infection assay. Cryopreserved PHH (BioreclamationIVT, Lot YJM) was thawed at 37° C. and gently transferred into pre-warmed InVitroGRO HT medium (BioreclamationIVT, Cat. S03317). The mixture was centrifuged at 70 relative centrifugal force (RCF) for 3 minutes at RT, and the supernatant was discarded. Pre-warmed InVitroGRO CP medium (BioreclamationIVT, Cat #S03316) was added to the cell pellet to gently re-suspend cells. The cells were seeded at the density of 5.8×10^4 cells per well to collagen I coated 96-well plate (Gibco, Cat. A1142803) with the InVitroGRO CP medium. All plates were incubated at 37° C. with 5% CO2 and 85% humidity.
At 20 hours after plating, the medium was changed to PHH culture medium (Dulbecco's Modified Eagle Medium (DMEM)/F12 (1:1) (Gibco, Cat. 11320-033), 10% fetal bovine serum (Gibco Cat. 10099141), 100 U/mL penicillin, 100 μg/mL streptomycin (Gibco, Cat. 151401-122), 5 ng/mL human epidermal growth factor (Invitrogen Cat. PHG0311L), 20 ng/mL dexamethasone (Sigma, Cat. D4902) and 250 ng/mL human recombinant insulin (Gibco, Cat. 12585-014)). And the cells were incubated at 37° C. with 5% CO2 and 85% humidity for 4 hours. The medium was then changed to pre-warmed PHH culture medium containing 4% polyethylene glycol (PEG) MW8000 (Sigma, Cat. P1458-50ML) and 1% DMSO (Sigma, Cat. D2650). 5.8×10^6 genomic equivalents of HBV were added into the medium.
At 24 hours post-infection, the cells were gently washed with PBS and refreshed with PHH culture medium supplemented with 1% DMSO, and 0.25 mg/mL Matrix gel (Corning, Cat. 356237) at 200 μL per well. All plates were immediately placed in at 37° C. CO2 incubator. 24 hours later, serial dilutions of compounds made with DMSO were further diluted with the same culture medium (PHH culture medium supplemented with 1% DMSO and 0.25 mg/mL Matrix gel as described above) before they were added to the cells to reach desired final compound concentrations and 1% DMSO concentration. The medium containing the compounds were refreshed every three days.
At 9 days post-compound treatment, extracellular HBsAg level were measured with Chemiluminescence Immuno Assay (CLIA) kit (Autobio, HBsAg Quantitative CLIA). Extracellular HBV DNA was extracted by MagNA Pure 96 system (Roche) and then determined
HBsAg IC50 and HBV DNA IC50 values were derived from the dose-response curve using 4 parameter logistic curve fit method. The compounds of formula (I) have HBsAg IC50<20 μM, particularly <1 μM; and HBV DNA IC50<50 μM. Results of Cryopreserved PHH assay are given in TableBIO2.

[2] = test system: HBeAg (surrogate marker for cccDNA) in HepDES19 cells; experiment: Engineered HepDES19 primary screen assay (HBeAg ELISA); type: cell-based, HBV; conditions: Hepatitis B virus, 120 h, HBeAg in culture supernatant, 5 days incubation, read-out: IC50 (HepDES19 primary screen assay, inhibition of extracellular HBeAg level)
Procedure, shortened: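 HepDES19 cells pre-induced by Tet withdrawal for 8 days, frozen, then seeded and dosed after 24 h with half-log compound dilutions (1% DMSO final). After 5 days at 37 °C, HBeAg measured by ELISA and viability by CCK-8; IC50 from 4-parameter logistic fit.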

| Compound | IC50 [1] [µM] | IC50 [2] [µM] |
| --- | --- | --- |
| CC(=O)N1CCN(CCOc2cc(Br)ccc2-c2cc(=O)c3cccc(Cl)c3o2)CC1 [Example 082] | 7.56 | 0.24 |
| CS(=O)(=O)NC(=O)C1CCCN1CCOc1cc(C(F)(F)F)ccc1-c1cc(=O)c2cccc(Cl)c2o1 (stereo not drawn) [Example 073, 1-[2-[2-(8-chloro-4-oxo-chromen-2-yl)-5-(trifluoromethyl)phenoxy]ethyl]-N-methylsulfonyl-pyrrolidine-2-carboxamide] | 7.47 | 0.14 |
| O=C(O)C(=O)N1CC[C@H](Oc2cc(C(F)(F)F)ccc2-c2cc(=O)c3cccc(Cl)c3o2)C1 [Example 126, 2-oxo-2-[(3S)-3-[2-(8-chloro-4-oxo-chromen-2-yl)-5-(trifluoromethyl)phenoxy]pyrrolidin-1-yl]acetic acid] | 4.21 | 0.91 |
| CN(C1CCN(CCOc2cc(Br)ccc2-c2cc(=O)c3cccc(Cl)c3o2)C1)S(C)(=O)=O (stereo not drawn) [Example 076, N-[1-[2-[5-bromo-2-(8-chloro-4-oxo-chromen-2-yl)phenoxy]ethyl]pyrrolidin-3-yl]-N-methyl-methanesulfonamide] | 7.95 | 1.64 |
| CC(=O)NCCCOc1cc(C(F)(F)F)ccc1-c1cc(=O)c2cccc(Cl)c2o1 [Example 098] | 6.34 | 4.34 |
| CS(=O)(=O)C1CCN(CCOc2cc(Br)ccc2-c2cc(=O)c3cccc(Cl)c3o2)C1 (stereo not drawn) [Example 084] | 3.48 | 0.59 |
| O=C(O)C1CN(CCCOc2cc(Br)ccc2-c2cc(=O)c3cccc(Cl)c3o2)CCO1 (stereo not drawn) [Example 002, 4-[3-[5-bromo-2-(8-chloro-4-oxo-chromen-2-yl)phenoxy]propyl]morpholine-2-carboxylic acid] | 4.01 | 0.25 |
| O=C(O)C1CN(CCCOc2cc(C(F)(F)F)ccc2-c2cc(=O)c3cccc(Cl)c3o2)CCO1 (stereo not drawn) [Example 018, 4-[3-[2-(8-chloro-4-oxo-chromen-2-yl)-5-(trifluoromethyl)phenoxy]propyl]morpholine-2-carboxylic acid] | 5.13 | 0.41 |
| COc1cc(-c2cc(=O)c3cccc(Cl)c3o2)c(OCCCN2CC[C@H](C(=O)O)C2)cc1Br [Example 017, (3S)-1-[3-[5-bromo-2-(8-chloro-4-oxo-chromen-2-yl)-4-methoxy-phenoxy]propyl]pyrrolidine-3-carboxylic acid] | 3.42 | 0.34 |
| O=C(O)C(=O)NCCCOc1cc(C(F)(F)F)ccc1-c1cc(=O)c2cccc(Cl)c2o1 [Example 117] | 1.9 | 2.16 |
| O=c1cc(-c2ccc(Br)cc2OCCN2CCS(=O)(=O)CC2)oc2c(Cl)cccc12 [Example 089, 2-[4-bromo-2-[2-(1,1-dioxo-1,4-thiazinan-4-yl)ethoxy]phenyl]-8-chloro-chromen-4-one] | 5.81 | 1.94 |
| O=C1CCCN1CCOc1cc(Br)ccc1-c1cc(=O)c2cccc(Cl)c2o1 [Example 075, 1-[2-[5-bromo-2-(8-chloro-4-oxo-chromen-2-yl)phenoxy]ethyl]pyrrolidin-2-one] | 3.57 | 0.11 |
| COc1cc(-c2cc(=O)c3cccc(Cl)c3o2)c(OCCCN2CC[C@@H](C(=O)O)C2)cc1Br [Example 016, (3R)-1-[3-[5-bromo-2-(8-chloro-4-oxo-chromen-2-yl)-4-methoxy-phenoxy]propyl]pyrrolidine-3-carboxylic acid] | 7.64 | 0.89 |
| O=C(O)C(=O)NCCOc1cc(C(F)(F)F)ccc1-c1cc(=O)c2cccc(Cl)c2o1 [Example 119, 2-[2-[2-(8-chloro-4-oxo-chromen-2-yl)-5-(trifluoromethyl)phenoxy]ethylamino]-2-oxo-acetic acid] | 0.67 | 3.43 |
| O=C(O)C(=O)NCC(O)COc1cc(C(F)(F)F)ccc1-c1cc(=O)c2cccc(Cl)c2o1 (stereo not drawn) [Example 166, 2-[[3-[2-(8-chloro-4-oxo-chromen-2-yl)-5-(trifluoromethyl)phenoxy]-2-hydroxy-propyl]amino]-2-oxo-acetic acid] | 3.03 | 1.57 |
| NS(=O)(=O)CCNCCCOc1cc(C(F)(F)F)ccc1-c1cc(=O)c2cccc(Cl)c2o1 [Example 080, 2-[3-[2-(8-chloro-4-oxo-chromen-2-yl)-5-(trifluoromethyl)phenoxy]propylamino]ethanesulfonamide] | 4.02 | 3.14 |
| O=C(O)C1CCCN1CCOc1cc(Br)ccc1-c1cc(=O)c2cccc(Cl)c2o1 (stereo not drawn) [Example 020, 1-[2-[5-bromo-2-(8-chloro-4-oxo-chromen-2-yl)phenoxy]ethyl]pyrrolidine-2-carboxylic acid] | 8.36 | 0.87 |
| O=C(O)C1CC2CCC(C1)N2CCOc1cc(Br)ccc1-c1cc(=O)c2cccc(Cl)c2o1 (stereo not drawn) [Example 025, 8-[2-[5-bromo-2-(8-chloro-4-oxo-chromen-2-yl)phenoxy]ethyl]-8-azabicyclo[3.2.1]octane-3-carboxylic acid] | 7.63 | 0.79 |
| CS(=O)(=O)NC(=O)[C@H]1CCN(CCCOc2cc(C(F)(F)F)ccc2-c2cc(=O)c3cccc(Cl)c3o2)C1 [Example 066, (3S)-1-[3-[2-(8-chloro-4-oxo-chromen-2-yl)-5-(trifluoromethyl)phenoxy]propyl]-N-methylsulfonyl-pyrrolidine-3-carboxamide] | 9.03 | 2.79 |
| O=C(O)C1COCCN1CCOc1cc(Br)ccc1-c1cc(=O)c2cccc(Cl)c2o1 (stereo not drawn) [Example 052, 4-[2-[5-bromo-2-(8-chloro-4-oxo-chromen-2-yl)phenoxy]ethyl]morpholine-3-carboxylic acid] | 5.82 | 0.08 |
| O=C(O)[C@H]1CCN(CC(O)COc2cc(Br)ccc2-c2cc(=O)c3cccc(Cl)c3o2)C1 (stereo partly drawn) [Example 164, (3S)-1-[3-[5-bromo-2-(8-chloro-4-oxo-chromen-2-yl)phenoxy]-2-hydroxy-propyl]pyrrolidine-3-carboxylic acid] | 9.66 | 2.96 |
| CS(=O)(=O)NC(=O)[C@@H]1CCN(CCOc2cc(Br)ccc2-c2cc(=O)c3cccc(Cl)c3o2)C1 [Example 064, (3R)-1-[2-[5-bromo-2-(8-chloro-4-oxo-chromen-2-yl)phenoxy]ethyl]-N-methylsulfonyl-pyrrolidine-3-carboxamide] | 6.41 | 0.08 |
| O=C(O)C1CN(CCOc2cc(Br)ccc2-c2cc(=O)c3cccc(Cl)c3o2)CCO1 (stereo not drawn) [Example 023, 4-[2-[5-bromo-2-(8-chloro-4-oxo-chromen-2-yl)phenoxy]ethyl]morpholine-2-carboxylic acid] | 4.95 | 0.13 |
| NC(=O)NCCCOc1cc(C(F)(F)F)ccc1-c1cc(=O)c2cccc(Cl)c2o1 [Example 157, 3-[2-(8-chloro-4-oxo-chromen-2-yl)-5-(trifluoromethyl)phenoxy]propylurea] | 3.4 | 4.15 |
| O=C(O)C1CCN(CCCOc2cc(Br)ccc2-c2cc(=O)c3cccc(Cl)c3o2)C1 (stereo not drawn) [Example 001, 1-[3-[5-bromo-2-(8-chloro-4-oxo-chromen-2-yl)phenoxy]propyl]pyrrolidine-3-carboxylic acid] | 5.43 | 0.35 |
| NC(=O)CNCCOc1cc(C(F)(F)F)ccc1-c1cc(=O)c2cccc(Cl)c2o1 [Example 167, 2-[2-[2-(8-chloro-4-oxo-chromen-2-yl)-5-(trifluoromethyl)phenoxy]ethylamino]acetamide] | 7.94 | 3.3 |
| O=C(O)[C@H]1CCN(CCOc2cc(Br)ccc2-c2cc(=O)c3c(C(F)(F)F)ccc(Cl)c3o2)C1 [Example 042, (3S)-1-[2-[5-bromo-2-[8-chloro-4-oxo-5-(trifluoromethyl)chromen-2-yl]phenoxy]ethyl]pyrrolidine-3-carboxylic acid] | 7.3 | 0.05 |
